Consider four molecules from patent US20140336365A1, “CDR REGIONS OF MONOCLONAL ANTIBODY THAT ANTAGONIZE SPHINOGOSINE 1-PHOSPHATE AND RELATED METHODS” (priority 2011, published 2014).

One experiment deals with tumor transplant model. The settings on record: cited from earlier work.
The next experiment deals with S1P receptors. Conditions: with the exception of S1P2; by stable internalization; cited from earlier work.
Experiment [1] has as its system MDA-MB-231 cells. The experiment is described as follows: Tamoxifen toxicity, cell viability by phase contrast microscopy. Type of experiment: cell-based, human. The procedure: The experiment can be performed first without a S1P antagonist. MDA-MB-231 cells are cultured under standard conditions in Dulbecco's Minimal Essential Media supplemented with 10% fetal bovine serum and glutamate. Cells are grown in the absence of serum for 24 hours prior to experimental manipulation. Tamoxifen (Tam) and S1P are added to the media at the indicated concentrations for the indicated times at the appropriate concentrations (e.g., 3 μM Tam, 10 μM Tarn, and 20 μM Tam) for appropriate times (e.g., 6 hrs. and 24 hrs.). Cell viability is observed by direct illumination with an inverted phase contrast microscope.
The tamoxifen toxicity experiment can be performed using an antagonist of S1P that binds to S1P3. For example, the antiserum described in Example 1 can be employed. MDA-MB-231 cells are cultured under standard conditions in Dulbecco's Minimal Essential Media supplemented with 10% fetal bovine serum and glutamate. Serum concentration is reduced to 1% for 24 hours prior to experimental manipulation. Tamoxifen and S1P are added to the media at the appropriate concentrations (e.g., 0 μM Tam, 10 μM Tam, and 20 μM Tam) for appropriate times (e.g., 6 hrs. and 24 hrs.). Cell viability is observed by direct illumination with an inverted phase contrast microscope.

Experiment [2] relates to MDA-MB-231 breast cancer cells. As to the kind of experiment: S1P-induced cytoskeletal rearrangement / cell rounding (phalloidin staining). It is filed as cell-based, human. The procedure:
MDA-MB-231 breast cancer cells are cultured on collagen-coated coverslips in the presence of 10% FBS using standard techniques. Because S1P is present at high concentrations in serum, BCCs are “serum-starved” in Dulbecco's modified Eagle medium (DMEM) for 12 hours prior to experimental manipulation. S1P is solubilized with bovine serum albumin (BSA) carrier and administered at a final concentration of 1 nM to 1 μM. Coverslips are collected at representative time points such as 10 minutes, 1 hr., 2 hrs., 4 hrs., and 6 hrs., fixed with 4% paraformaldehyde, and stained with rhodamine-conjugated phalloidin to label cytoskeletal actin.
The cell rounding experiment can be performed using an antagonist of S1P that binds to S1P3. For example, the antiserum described in Example 1 can be employed. Serum-starved MDA-MB-231 cells are incubated with preimmune serum or S1P3-reactive antiserum for 15 minutes prior to a 30-minute exposure to 10 nM S1P, then evaluated for response both in % cells responding and average cell area.
MDA-MB-231 cells are grown under standard culture conditions and serum starved for 24 hours prior to experimental manipulation. S1P3 antiserum or pre-immune serum obtained from the same rabbit is added to the media at a final concentration of 1:10,000 as indicated. 15 minutes later, S1P is added to the media to a final concentration of 10 nM. 30 minutes after S1P administration, cells are fixed with 4% paraformaldehyde, stained with rhodamine-conjugated phalloidin, and visualized with fluorescence microscopy. Rounded cells are counted by an experimenter blinded to the identity of the sample. Cell area is determined by quantification with ImageJ software.

For the next experiment, the system named is MDA-MB-231. As to the kind of experiment: Cell proliferation by BrdU incorporation, MDA-MB-231. It is filed as cell-based, human. The method, then: (§1) The experiment can first be performed in the absence of the antagonist. The effect of S1P on cell proliferation is determined by measuring bromodeoxyuridine (BrdU) incorporation. In this assay, cells are treated with S1P or vehicle control (0.1% fatty acid-free BSA) for 30 minutes before being exposed to a 30-minute BrdU pulse. Cells are then fixed with ethanol, labeled with a biotinylated α-BrdU antibody, incubated with streptavidin-peroxidase, developed with DAB, and counter-stained with hematoxylin. Nuclei of cells in S-phase during the 30-minute pulse are labeled brown, while non-proliferative cells show the blue hematoxylin stain.
On the technique in general: Uptake of a labelled nucleoside into DNA is a usual measure of proliferation.

Experiment [3] relates to MDA-MB-231 cells. As to the kind of experiment: Cell motility, modified Boyden's chamber assay. Conditions: 1 μM S1P. Type of experiment: cell-based, human. The procedure: Cell motility is determined using a modified Boyden's chamber assay. MDA-MB-231 cells are introduced into the upper wells of collagen-coated chambers in serum-free DMEM and incubated for 30 minutes before the addition of either 1 μM S1P in BSA or BSA alone. At the indicated times, wells are isolated and fixed with 4% paraformaldehyde before non-migrated cells in the upper well are removed with a cotton swab. Membranes are then stained with DAPI to visualize individual migrated cells on the bottom of the membranes. Results shown are the averages of three independent experiments.

For the next experiment, the system named is MCF-7. As to the kind of experiment: Cell proliferation by BrdU incorporation, MCF-7. Type of experiment: cell-based, human. The procedure: as §1
Another experiment has as its system MCF-7 cells. The experiment is described as follows: Cell death by annexin V assay (FACS). Type of experiment: cell-based, human. The settings on record: for % Annexin positive cells: overnight. The procedure:
Quantification of cell death can be performed with an annexin V assay. […] of 500 nM S1P, then collected by trypsinization, and labeled with Alexafluor 488-conjugated annexin V (Invitrogen Corp, Carlsbad, Calif.) per manufacturer's protocol. Cells can be counted on a FACSAria cell sorting system and analyzed with FACSDiva software (BD Biosciences, San Jose, Calif.). […] This effect is attenuated by co-administration of 500 nM S1P.

Another experiment addresses T1, S1P3 (Homo sapiens, UniProt Q99500).
T1 construct: expressed in transfected cells; host or cells: HEK293 (pcDNA3.1)
The experiment is described as follows: Immunocytochemistry of hybridoma supernatants on HEK293 cells expressing tagged S1P3. It is filed as binding. Conditions: HEK293 cells expressing S1P3 fused to V5 or EGFP. From the text:
A synthetic peptide is synthesized with the amino acid sequence: KKTFSLSPTVWFLREG. This sequence corresponds to the extra-cellular loop between transmembrane domains 2 and 3 of cell surface receptor S1P3. This peptide is conjugated to keyhole limpet hemocyanin (KLH) and used for the immunization of 5 balb/c mice. Production of specific antibodies is confirmed by immunocytochemistry. HEK293 cells are transiently transfected with a mammalian expression vector (pcDNA3.1) encoding the full-length S1P3 protein fused to either a V5 epitope or enhanced green fluorescent protein (EGFP) on its C-terminal end. After 16-36 hours, cells are fixed with 4% paraformaldehyde, blocked with BSA, and exposed to antiserum from immunized mice (dilutions of 1:10, 1:25, 1:50, 1:100, 1:250, 1:500, 1:1,000, 1:2,000, 1:5,000), or supernatants from hybridoma cultures. […] Binding of antibodies from serum or supernatants is detected with a Cy3-conjugated secondary antibody. Specificity of binding is evaluated by coincidence of this signal with green fluorescence, either from the expressed EGFP fusion protein or from secondary antibody bound to the expressed V5 epitope.
Mice are immunized with KLH-conjugated peptide at regular intervals and evaluated by enzyme-linked immunosorbent assay (ELISA) and immunocytochemistry until sera are identified that contain specific antibodies (2-3 months). […]

Where only a bound is given, the exact number is not on record here.

T1 sequence (Q99500 whole entry): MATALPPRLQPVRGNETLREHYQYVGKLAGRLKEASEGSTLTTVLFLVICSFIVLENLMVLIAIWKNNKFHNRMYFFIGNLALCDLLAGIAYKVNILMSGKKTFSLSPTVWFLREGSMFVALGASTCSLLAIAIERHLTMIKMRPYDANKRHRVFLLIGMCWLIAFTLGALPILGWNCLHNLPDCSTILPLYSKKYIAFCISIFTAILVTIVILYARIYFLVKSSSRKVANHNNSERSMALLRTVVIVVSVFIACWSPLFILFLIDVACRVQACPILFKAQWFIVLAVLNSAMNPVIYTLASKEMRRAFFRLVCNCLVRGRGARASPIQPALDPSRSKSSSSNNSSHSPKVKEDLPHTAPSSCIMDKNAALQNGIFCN

On to `CCCCCCCCc1ccc(CCC(N)(CO)CO)cc1` [FTY720], for which the “Effect on angiogenesis and tumor growth” value with tumor transplant model was “inhibit angiogenesis and subsequent growth”. Moreover, in the experiment on S1P receptors, the “Inhibition of S1P receptors” value is recorded as “effectively inhibit four of the five known receptors”.
As for `CCCCCCCCCCCCC/C=C/[C@@H](O)[C@@H](N)COP(=O)(O)O` [S1P, Sphingosine 1-phosphate], the “Cell viability under tamoxifen with S1P” value in the experiment with MDA-MB-231 cells [1] (1 μM S1P with 10 or 20 μM tamoxifen, 6 hours, serum-free) is on record as “many viable cells remain”. Also, the “Survival under tamoxifen with S1P” value in the experiment on MDA-MB-231 cells [1] (S1P with 3 or 10 μM tamoxifen, 24 hour, serum-free) is reported as “markedly improves survival”. The Cell shape change result in [2] (1 nM S1P) was “minor cell shape changes”; in experiment [2] (10 nM S1P), “dramatic cell rounding”. Further, the “% Rounded Cells Following S1P Treatment” value in experiment [2] (10 nM S1P, 30 min, no serum) is recorded as 64%. The “Average Cell Area Following S1P Treatment” value in experiment [2] (10 nM S1P, 30 min, no serum) is 960.4 μm^2. For the same molecule, the “Cells with marked cytoskeletal rearrangement” value in experiment [2] (1 μM S1P, within 10 minutes) is recorded as greater than 90%. For the same molecule, the “Effect on mitosis (BrdU incorporation), in words” value in the experiment with MDA-MB-231 and in the experiment on MCF-7 was “dose-dependent increase in mitosis” in each case. Moreover, the “Mitosis by BrdU incorporation” value in the experiment on MDA-MB-231 (10 nM S1P) is 71%; with MDA-MB-231 (100 nM S1P), 84%; with MDA-MB-231 (1 μM S1P), 88%; in the experiment on MCF-7 (10 nM S1P), 49%; with MCF-7 (100 nM S1P) it was 45%; with MCF-7 (1 μM S1P), 61%. In addition, the “Effect on cell motility compared to vehicle control, in words” value with MDA-MB-231 cells [3] was “rapid and significant increase in cell motility”. For the same molecule, the figures for the “Cell migration (migrated cells)” value with MDA-MB-231 cells [3] (1 hours), with MDA-MB-231 cells [3] (2 hours) and with MDA-MB-231 cells [3] (4 hours) were 672.5 Cells/mm^2, 900 Cells/mm^2 and 1385 Cells/mm^2, respectively. Also, the “Increase in migrated cells compared to vehicle control” value with MDA-MB-231 cells [3] (two hour time point) was “nearly two-fold increase”; in the experiment on MDA-MB-231 cells [3] (within one hour), 74%. The “% Annexin positive cells” value in the experiment with MCF-7 cells (500 nM S1P with 10 μM Tamoxifen) was 15.9%; with MCF-7 cells (500 nM S1P with 20 μM Tamoxifen), 20.2%; in the experiment with MCF-7 cells (500 nM S1P, 0 Tamoxifen) it was 6.2%. The “Effect on tamoxifen-induced annexin V binding, in words” value with MCF-7 cells (co-administration of 500 nM S1P) is given as “attenuated”.
In the case of `CC/C(=C(\c1ccccc1)c1ccc(OCCN(C)C)cc1)c1ccccc1` [Tamoxifen], the Cell viability result in the experiment on MDA-MB-231 cells [1] (3 μM tamoxifen, 24 hour, serum-free) is reported as “most control cells are lost”; in the experiment with MDA-MB-231 cells [1] (10 μM Tam, 6 hours, 1% FBS), “appear normal”; with MDA-MB-231 cells [1] (10 μM tamoxifen, 6 hours, serum-free), “only a few viable cells remain”; with MDA-MB-231 cells [1] (10 μM tamoxifen, 24 hour, serum-free) it was “cell death is complete”; with MDA-MB-231 cells [1] (20 μM Tam, 6 hours, 1% FBS), “begin to show evidence of cell death”; in the experiment with MDA-MB-231 cells [1] (20 μM tamoxifen, 6 hours, serum-free), “all cells are dead/dying”. For the same molecule, the “% Annexin positive cells” value in the experiment on MCF-7 cells (10 μM Tamoxifen, BSA (no S1P)) was found to be 20.1%; in the experiment with MCF-7 cells (20 μM Tamoxifen, BSA (no S1P)) it was 28.9%. In addition, in the experiment on MCF-7 cells (overnight treatment with tamoxifen), the “Effect on annexin V binding (apoptotic cell death), in words” value is “increase in annexin V binding”.

B1: EDDbeta7H9: Hybridoma EDDbeta7H9 (ATCC PTA-9973) produces the monoclonal antibody Mab7H9, which binds S1P3 (antibody, V domains shown)
VL: DIVMTQSHKFMSTSVGDRVSITCKASQDVSTGVVWYQQKEGQSPKLLIYSASYRYTGVPNRFTGSGSGTDFTFTISGVQAEDLAVYYCQQHYSSPTFGGGTKLEIKRADAAPTVSIFPPSS
VH: QVTLKESGPGILQPSQTLSLTCSFSGFSLSTSNMGVGWIRQPSGKGLEWLLHILWNDNKHYNPALKSRLTISKDTYKNQVFLKIANVDTADTATYYCARILYRSNYYVMDYWGQGTSVTVSSAKTTPPSVYPL
Regarding B1, the “Presence of specific antibodies in hybridoma supernatant by immunocytochemistry” value with S1P3 is reported as “positive”.
